Holding throughout (assay): NCI-60 cell line screen, 48 h
Assay [1] concerns COLO 205 colon.
Assay [2] relates to MDA-MB-435.
In assay [3] the test system is CCRF-CEM leukemia.
Assay [4] has as its system NCI-H226 lung.
Assay [5] concerns K-562 leukemia.
Assay [6] concerns A549 NSCLC.
Assay [7] deals with MALME-3M melanoma.
Assay [8] has as its system SK-MEL-2 melanoma.
Assay [9] concerns BT-549 breast.
In assay [10] the test system is IGROV1 ovarian.

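Results reflect a 48-hour exposure of cells in 96-well plates to compound at five concentrations. GI50 marks 50% less growth. Definition used: TGI = concentration required for complete inhibition of growth.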

As for `CC(C)C/C(=N\NC(=O)c1ccncc1)c1cc(Cl)ccc1O`, the GI50 in [1] is 0.354 µM; in [2], 0.682 µM; in assay [3], 0.0864 µM; in [4], 0.848 µM; in [5], 0.516 µM; in [6], 0.498 µM. In addition, the GI50 in assay [7] was 1.65 µM; in [8], 1.87 µM; in assay [9], 0.922 µM; in assay [10], 0.224 µM. For the same compound, the TGI in assay [1] is 14.4 µM; in assay [2], 44.9 µM; in assay [3], more than 58.5 µM; in assay [4] it was 22.5 µM; in [5], more than 100 µM; in assay [6] it was more than 42.6 µM. Besides, the TGI in [7] was 16.7 µM; in assay [8], 31.9 µM; in assay [9] it was more than 25.6 µM; in assay [10] it was 17.3 µM.
On to `Cc1cn2c(/C=C3/C(=O)Nc4ccc(C(=O)O)cc43)c(C)nc2s1`, for which the GI50 in [1], in assay [2], in assay [3], in assay [4], in assay [5] and in [6] was more than 100 µM throughout. Besides, the GI50 in assay [7], in assay [8], in assay [9] and in assay [10] was more than 100 µM throughout. The TGI in [1], in [2], in assay [3], in assay [4], in assay [5] and in [6] was more than 100 µM throughout. For the same compound, the TGI in assay [7], in assay [8], in assay [9] and in assay [10] was more than 100 µM throughout.
As to `Cc1nn2c(-c3nc4cc(Cl)c(Cl)cc4[nH]3)c(-c3ccc(F)cc3)nc2s1`, the GI50 in assay [1] is more than 70.2 µM; in assay [2], 4.65 µM; in assay [3] it was more than 100 µM; in assay [4], 4.01 µM; in [5], more than 100 µM; in [6] it was 1.92 µM. For the same compound, the GI50 is 3.23 µM in [7], 14.2 µM in assay [8], 8.57 µM in [9] and 5.42 µM in assay [10]. The TGI in assay [1] was more than 100 µM; in assay [2] it was more than 100 µM; in [3], more than 100 µM; in assay [4], 31.1 µM; in assay [5] it was more than 100 µM; in [6], more than 42.3 µM. The TGI was 15 µM in assay [7], 94.5 µM in assay [8], more than 100 µM in assay [9] and more than 50.6 µM in assay [10].
Regarding `CCOC(=O)C1=C(C)N(Cc2ccc(Cl)cc2Cl)[C@]2(C#N)C(O)=C(Cl)C(Cl)=C(O)[C@]12C#N`, the GI50 in [1] is more than 100 µM; in [2] it was more than 100 µM; in [3], 18.4 µM; in assay [4] it was more than 100 µM; in assay [5], 28.1 µM; in [6], more than 100 µM. Besides, the GI50 in [7] was more than 100 µM; in assay [8], more than 100 µM; in assay [9], 21.1 µM; in assay [10], more than 100 µM. Also, the TGI is more than 100 µM in [1]; more than 100 µM in assay [2]; 37.3 µM in [3]; more than 100 µM in assay [4]; 57.5 µM in assay [5]; more than 100 µM in assay [6]. The TGI in assay [7], in assay [8], in [9] and in assay [10] was more than 100 µM in each case.
For the compound `O=S(=O)(NCCCNc1nccc(-c2c(-c3cccc(F)c3)nc3occn23)n1)c1cccc2ccccc12`, the GI50 in assay [1] is 4.64 µM; in assay [2], 3.75 µM; in assay [3] it was 5.48 µM; in assay [4] it was 5.12 µM; in [5] it was 2.87 µM; in assay [6], 6.67 µM. Besides, the GI50 is 5.24 µM in assay [7], 6.99 µM in assay [8], 4.44 µM in assay [9] and 3.33 µM in assay [10]. Further, the TGI in [1], in assay [2], in assay [3], in [4], in assay [5] and in assay [6] was more than 100 µM each time. The TGI in assay [7], in [8], in assay [9] and in assay [10] was more than 100 µM each time.
As for `Nc1c(C(=O)Nc2ccccn2)sc2nc3c(cc12)CCCCCC3`, the GI50 is 1.49 µM in assay [1]; 0.143 µM in [2]; 0.355 µM in assay [3]; 3.15 µM in assay [4]; 0.204 µM in assay [5]; 1.65 µM in [6]. Besides, the GI50 in assay [7] is 1.26 µM; in [8], 0.965 µM; in assay [9] it was 0.524 µM; in assay [10], 1.95 µM. In addition, the TGI in assay [1] was 13.6 µM; in assay [2] it was 0.509 µM; in [3], more than 50 µM; in assay [4] it was 18.5 µM; in assay [5], 38.5 µM; in assay [6], 9.17 µM. The TGI was determined as 13.8 µM in assay [7], 9.83 µM in assay [8], 18 µM in assay [9] and 13.9 µM in assay [10].
Consider `CN(C)c1ccc2c(c1)OC(N)=C(C#N)C2c1ccc2c(c1)CCCN2C` (stereo not given), for which the GI50 was 2.44 µM in assay [1]; 0.305 µM in [2]; 3.01 µM in assay [3]; 5.44 µM in assay [4]; 0.493 µM in [5]; 2.03 µM in [6]. For the same compound, the GI50 in assay [7] was 16.3 µM; in assay [8], 1.68 µM; in assay [9] it was 2.03 µM; in assay [10] it was 4.03 µM. Moreover, the TGI in assay [1] is 6.51 µM; in assay [2], 1.28 µM; in assay [3], 49.2 µM; in assay [4], 71 µM; in assay [5] it was more than 100 µM; in assay [6], more than 100 µM. In addition, the TGI was 58.9 µM in assay [7], 28.6 µM in [8], 13.2 µM in assay [9] and more than 100 µM in assay [10].

The values are drawn from PubChem BioAssay (NCI).
